Reference: ChEMBL document CHEMBL1201862, “PubChem BioAssay data set” (2004)
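Step 1: Grow cells in 96-well plates. Step 2: Expose to compound for 48 hours at 5 concentrations. Step 3: Interpolate endpoints linearly; if unreached, use highest concentration. GI50 = concentration required for 50% inhibition of growth.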 Calls of active or inactive are those of the source. Rule as the data show it: active = GI50 up to about 1.1 µM and inactive = higher.

What was measured:
Test in all cases: inhibition of tumour cell growth, NCI panel, 48 h
K562 = test system: K562
UACC-257 = test system: UACC-257
HCT-15 = test system: HCT-15
MCF7 = test system: MCF7
BT-549 = test system: BT-549
NCI-H522 = test system: NCI-H522
EKVX = test system: EKVX
SR = test system: SR
DU-145 = test system: DU-145
SK-OV-3 = test system: SK-OV-3
U-251 = test system: U-251
UACC-62 = test system: UACC-62
Hs-578T = test system: Hs-578T
HOP-62 = test system: HOP-62
Malme-3M = test system: Malme-3M
HL-60 = test system: HL-60
HCT-116 = test system: HCT-116
SF-539 = test system: SF-539
HCC 2998 = test system: HCC 2998
A498 = test system: A498

Row | Structure (SMILES) | GI50 (K562) | GI50 (UACC-257) | GI50 (HCT-15) [µM] | GI50 (MCF7) | GI50 (BT-549) | GI50 (NCI-H522) | GI50 (EKVX) | GI50 (SR) | GI50 (DU-145) | GI50 (SK-OV-3) | GI50 (U-251) | GI50 (UACC-62) | GI50 (Hs-578T) | GI50 (HOP-62) | GI50 (Malme-3M) | GI50 (HL-60) | GI50 (HCT-116) | GI50 (SF-539) | GI50 (HCC 2998) | GI50 (A498)
1 | O=[N+]([O-])c1ccc(N/N=C2\C=CCCC2)c([N+](=O)[O-])c1 | > 100 µM (inactive) | > 100 µM (inactive) | > 100 | > 100 µM (inactive) | > 100 µM (inactive) | > 100 µM (inactive) | > 100 µM (inactive) | > 100 µM (inactive) | > 100 µM (inactive) | > 100 µM (inactive) | > 100 µM (inactive) | > 100 µM (inactive) | 27.3 µM (inactive) | 63.5 µM (inactive) | > 100 µM (inactive) | > 100 µM (inactive) | > 100 µM (inactive) | – | – | –
2 | O=C(c1ccccc1)C1C(C(=O)c2ccccc2)C(c2ccccc2)N(c2ccccc2)C1c1ccccc1 (centres undefined) | 46.7 µM (inactive) | > 100 µM (inactive) | > 100 | > 100 µM (inactive) | > 100 µM (inactive) | > 100 µM (inactive) | > 100 µM (inactive) | > 100 µM (inactive) | > 100 µM (inactive) | – | > 100 µM (inactive) | > 100 µM (inactive) | 48 µM (inactive) | > 100 µM (inactive) | > 100 µM (inactive) | 5.48 µM (inactive) | > 100 µM (inactive) | > 100 µM (inactive) | > 100 µM (inactive) | –
3 | CC1(C)S[C@@H]2[C@H](NC(=O)[C@H](N)c3ccccc3)C(=O)N2[C@H]1C(=O)O [AMPICILLIN] | – | > 100 µM (inactive) | > 100 | > 100 µM (inactive) | > 100 µM (inactive) | 40.1 µM (inactive) | > 100 µM (inactive) | > 100 µM (inactive) | > 100 µM (inactive) | – | > 100 µM (inactive) | > 100 µM (inactive) | 63.8 µM (inactive) | > 100 µM (inactive) | – | > 100 µM (inactive) | > 100 µM (inactive) | > 100 µM (inactive) | > 100 µM (inactive) | –
4 | COC(=O)[C@H]1CO[C@H]2C/C(C)=C/CC/C(C)=C/CC[C@@]3(C)O[C@@H]3C[C@H]21 | 7.69 µM (inactive) | 18.4 µM (inactive) | 9.12 | 16.9 µM (inactive) | 7.8 µM (inactive) | 8.79 µM (inactive) | 19.5 µM (inactive) | 10.6 µM (inactive) | 23.7 µM (inactive) | 29.9 µM (inactive) | 18.6 µM (inactive) | 8.87 µM (inactive) | 14 µM (inactive) | 15.8 µM (inactive) | – | 10.7 µM (inactive) | 9.91 µM (inactive) | 15.6 µM (inactive) | 9.38 µM (inactive) | 22.9 µM (inactive)
5 | CC(NC(=O)C(N)CC(=O)O)NC(=O)N(C)C(C)(C)C (centres undefined) | > 100 µM (inactive) | > 100 µM (inactive) | > 100 | > 100 µM (inactive) | > 100 µM (inactive) | > 100 µM (inactive) | > 100 µM (inactive) | > 100 µM (inactive) | > 100 µM (inactive) | > 100 µM (inactive) | > 100 µM (inactive) | > 100 µM (inactive) | > 100 µM (inactive) | > 100 µM (inactive) | > 100 µM (inactive) | > 100 µM (inactive) | > 100 µM (inactive) | > 100 µM (inactive) | > 100 µM (inactive) | –
6 | CCOC(=O)c1cc(C2CCN(CC(C)CC)C2=S)c(-c2cc(C)no2)[nH]1 (centres undefined) | 77.4 µM (inactive) | > 100 µM (inactive) | > 100 | 89.3 µM (inactive) | 83.9 µM (inactive) | – | 14.7 µM (inactive) | 56.5 µM (inactive) | > 100 µM (inactive) | > 100 µM (inactive) | > 100 µM (inactive) | 72.3 µM (inactive) | 89.7 µM (inactive) | > 100 µM (inactive) | > 100 µM (inactive) | 35 µM (inactive) | 88.9 µM (inactive) | > 100 µM (inactive) | > 100 µM (inactive) | > 100 µM (inactive)
7 | COc1ccc(Cc2coc3ccccc3c2=O)cc1OC | 72.6 µM (inactive) | 59.2 µM (inactive) | 31.8 | 46.2 µM (inactive) | 38 µM (inactive) | 43.5 µM (inactive) | 40.6 µM (inactive) | 61.1 µM (inactive) | > 100 µM (inactive) | > 100 µM (inactive) | 72.1 µM (inactive) | > 100 µM (inactive) | 56.6 µM (inactive) | 56.1 µM (inactive) | > 100 µM (inactive) | 86.5 µM (inactive) | 45.7 µM (inactive) | 42.8 µM (inactive) | – | –
8 | O=C(CN1CCOCC1)c1ccc2[nH]c(=O)oc2c1 | > 100 µM (inactive) | > 100 µM (inactive) | > 100 | > 100 µM (inactive) | > 100 µM (inactive) | – | > 100 µM (inactive) | > 100 µM (inactive) | > 100 µM (inactive) | > 100 µM (inactive) | > 100 µM (inactive) | > 100 µM (inactive) | > 100 µM (inactive) | > 100 µM (inactive) | > 100 µM (inactive) | > 100 µM (inactive) | > 100 µM (inactive) | > 100 µM (inactive) | – | > 100 µM (inactive)
9 | O=c1n(/N=C/c2ccccc2)c(=O)n2n1C1C=CC2CC1 | > 100 µM (inactive) | > 100 µM (inactive) | > 100 | > 100 µM (inactive) | > 100 µM (inactive) | – | > 100 µM (inactive) | > 100 µM (inactive) | > 100 µM (inactive) | > 100 µM (inactive) | > 100 µM (inactive) | > 100 µM (inactive) | > 100 µM (inactive) | > 100 µM (inactive) | – | > 100 µM (inactive) | > 100 µM (inactive) | > 100 µM (inactive) | – | > 100 µM (inactive)
10 | Cc1cc(N)ccc1/N=N\c1ccc(S(=O)(=O)CCOS(=O)(=O)O)cc1 | 0.352 µM (active) | 11.1 µM (inactive) | 0.346 | 0.614 µM (active) | 1.53 µM (inactive) | 0.274 µM (active) | 27 µM (inactive) | 0.488 µM (active) | 26 µM (inactive) | – | 3.05 µM (inactive) | 1.57 µM (inactive) | 5.08 µM (inactive) | 6.1 µM (inactive) | 1.99 µM (inactive) | 0.948 µM (active) | 0.34 µM (active) | 2.46 µM (inactive) | 2.01 µM (inactive) | 11.2 µM (inactive)
11 | Cc1c2ccccc2cc2cccc[n+]12 | 10.4 µM (inactive) | 19.2 µM (inactive) | > 100 | 57.7 µM (inactive) | 23.4 µM (inactive) | 12.9 µM (inactive) | 4.72 µM (inactive) | 12.6 µM (inactive) | 61.4 µM (inactive) | – | – | 41.7 µM (inactive) | 25.6 µM (inactive) | 21.6 µM (inactive) | 11.3 µM (inactive) | 29.3 µM (inactive) | 37.2 µM (inactive) | 32.1 µM (inactive) | 15.2 µM (inactive) | –
12 | Nc1nc(Nc2ccc(Cl)cc2)sc1C(=O)c1c[nH]c2ccccc12 | 6.18 µM (inactive) | 7.26 µM (inactive) | 3.87 | 13.8 µM (inactive) | 16.9 µM (inactive) | – | – | 5.74 µM (inactive) | 14.2 µM (inactive) | 21.4 µM (inactive) | 12.2 µM (inactive) | 14.9 µM (inactive) | 21.6 µM (inactive) | 21 µM (inactive) | 16.4 µM (inactive) | 15.7 µM (inactive) | 11.1 µM (inactive) | 15.8 µM (inactive) | 11.3 µM (inactive) | 7.94 µM (inactive)
13 | O=c1c(Cc2ccc(Cl)cc2)nnc2sc(-c3ccc([N+](=O)[O-])cc3)nn12 | 15.6 µM (inactive) | 17.1 µM (inactive) | 14.6 | 19.6 µM (inactive) | 19.8 µM (inactive) | – | 23.2 µM (inactive) | 22.1 µM (inactive) | 29.8 µM (inactive) | 38.3 µM (inactive) | 29 µM (inactive) | 14.2 µM (inactive) | 42 µM (inactive) | 49.1 µM (inactive) | 23.4 µM (inactive) | 24.4 µM (inactive) | 20 µM (inactive) | – | 17.9 µM (inactive) | 20 µM (inactive)
14 | CC(C)c1cc(C(F)(F)F)nc(NNc2nc(C(C)C)cc(C(F)(F)F)n2)n1 | > 100 µM (inactive) | 15.9 µM (inactive) | > 100 | > 100 µM (inactive) | > 100 µM (inactive) | > 100 µM (inactive) | 67.5 µM (inactive) | > 100 µM (inactive) | > 100 µM (inactive) | 33.7 µM (inactive) | 45.8 µM (inactive) | 80 µM (inactive) | 79.4 µM (inactive) | 13.2 µM (inactive) | 49 µM (inactive) | > 100 µM (inactive) | 93.8 µM (inactive) | 90.8 µM (inactive) | – | > 100 µM (inactive)
15 | CCOC(=O)c1c(C)noc1/N=N/N(CCO)CCO | 29 µM (inactive) | 25.6 µM (inactive) | 41.5 | 29.1 µM (inactive) | 35.9 µM (inactive) | 24.2 µM (inactive) | 39.9 µM (inactive) | 19.9 µM (inactive) | 49.7 µM (inactive) | 57.4 µM (inactive) | 28.4 µM (inactive) | 23.9 µM (inactive) | 63.4 µM (inactive) | 32.6 µM (inactive) | 45.1 µM (inactive) | 26.1 µM (inactive) | 28.7 µM (inactive) | – | 22.3 µM (inactive) | 21.7 µM (inactive)
16 | C=CCn1c(=O)c(-c2ccccc2)c(O)c2ccccc21 | > 100 µM (inactive) | > 100 µM (inactive) | > 100 | > 100 µM (inactive) | > 100 µM (inactive) | > 100 µM (inactive) | > 100 µM (inactive) | > 100 µM (inactive) | > 100 µM (inactive) | – | > 100 µM (inactive) | – | > 100 µM (inactive) | > 100 µM (inactive) | > 100 µM (inactive) | > 100 µM (inactive) | > 100 µM (inactive) | > 100 µM (inactive) | > 100 µM (inactive) | > 100 µM (inactive)
